{"source": "patent US20250019371A1", "about": "“SMALL-MOLECULAR INHIBITORS FOR THE BETA-CATENIN/ B-CELL LYMPHOMA 9 PROTEIN-PROTEIN INTERACTION” (H. LEE MOFFITT CANCER CENTER AND RESEARCH INSTITUTE, INC., priority 2021, published 2025)", "key": {"β-catenin/BCL9 PPI [1]": {"test_system": "β-catenin/BCL9 PPI", "experiment": "Co-immunoprecipitation in HCT116 cells, β-catenin/BCL9", "format": "cell-based", "conditions": "24 h, full-length proteins", "method": "(§1) C0-Immunoprecipitation (C0-IP) Experiments. HCT116 cancer cells with hyperactive 8-catenin signaling at 1×10^6 cells/mL were treated with different concentrations of the inhibitor for 24 h. Cells were then lysed in buffer containing 50 mM Tris, pH 7.4, 150 mM NaCl, 1% Nonidet P-40, 2 mM EDTA, and protease inhibitors. The cell lysates were pre-adsorbed to A/G plus agarose (sc-2003, Santa Cruz Biotechnology) at 4° C. for 1 h. Pre-adsorbed lysates were incubated with a specific primary antibody against β-catenin (610153, BD Biosciences) overnight at 4° C. A/G plus agarose was then added to the lysate mixture and incubated for 3 h. The beads were washed four times with the lysis buffer at 4° C. The bound protein was eluted by boiling in the SDS sample buffer and loaded onto 8% SDS polyacrylamide gel for electrophoretic analysis. Separated proteins were transferred onto nitrocellulose membranes for immunoblot analysis. The antibodies against BCL9 (ab37305, Abcam) and E-cadherin (610404, BD Biosciences), were incubated with the membranes, respectively. IRDye 680LT goat anti mouse IgG (827-11080, LiCOR) and IRDye 800CW goat anti rabbit IgG (926-32211, LiCOR) were used as the secondary antibodies. The images were detected by the Odyssey Infrared Imaging System (LiCOR). Experiments were performed in triplicate."}, "[2]": {"test_system": "FOPFlash luciferase reporter (mutated Tcf4 binding sites)", "experiment": "FOPFlash luciferase reporter assay in SW480 cells", "format": "cell-based", "conditions": "same concentration range as TOPFlash", "method": "The suppressing effect of the inhibitors on transactivation of Wnt/β-catenin signaling was evaluated by the TOPFlash/FOPFlash luciferase reporter assay. In the TOPFlash assay, the luciferase reporter has three wild-type Tcf4 binding sites, while in the FOPFlash assay Tcf4 binding sites were mutated. These tandem Tcf binding sites controls the expression ratio of the firefly luciferase in TOPFlash/FOPFlash assays. The renilla luciferase reporter construct (pCMV-RL) was used as the internal control to normalize luciferase reporter signals and eliminate any possible systematic errors. […] This selectivity trend is consistent with that from MTS cell viability assays. Therefore, further cell-based studies were focused on compound 30.\nCell Transfection and Luciferase Assay. FuGENE6 (E269A, Promega) 96 well plate format was used for the transfection of SW480 cells according to the manufacturer's instruction. SW480 cells were co-transfected with 60 ng the TOPFlash or FOPFlash firefly luciferase reporter gene and 40 ng renilla luciferase pCMV-RL normalization reporter gene. Cells were cultured in DMEM and 10% FBS at 37° C. for 24 h, and different concentrations of inhibitors or DMSO was added. After 24 h, the luciferase reporter activity was measured using the Dual-Glo system (E2940, Promega). […]"}, "β-catenin/E-cadherin PPI": {"test_system": "β-catenin/E-cadherin PPI", "experiment": "Co-immunoprecipitation in HCT116 cells, β-catenin/E-cadherin", "format": "cell-based", "conditions": "concentrations sufficient to disrupt β-catenin/BCL9", "method": "as §1"}, "β-catenin/BCL9 PPI [3]": {"target": "T1, β-catenin/BCL9 PPI (Homo sapiens, UniProt P35222)", "T1 construct": "Full-length β-catenin (residues 1-781); host or cells: E. coli BL21 DE3", "T1 sequence (P35222 1-781)": "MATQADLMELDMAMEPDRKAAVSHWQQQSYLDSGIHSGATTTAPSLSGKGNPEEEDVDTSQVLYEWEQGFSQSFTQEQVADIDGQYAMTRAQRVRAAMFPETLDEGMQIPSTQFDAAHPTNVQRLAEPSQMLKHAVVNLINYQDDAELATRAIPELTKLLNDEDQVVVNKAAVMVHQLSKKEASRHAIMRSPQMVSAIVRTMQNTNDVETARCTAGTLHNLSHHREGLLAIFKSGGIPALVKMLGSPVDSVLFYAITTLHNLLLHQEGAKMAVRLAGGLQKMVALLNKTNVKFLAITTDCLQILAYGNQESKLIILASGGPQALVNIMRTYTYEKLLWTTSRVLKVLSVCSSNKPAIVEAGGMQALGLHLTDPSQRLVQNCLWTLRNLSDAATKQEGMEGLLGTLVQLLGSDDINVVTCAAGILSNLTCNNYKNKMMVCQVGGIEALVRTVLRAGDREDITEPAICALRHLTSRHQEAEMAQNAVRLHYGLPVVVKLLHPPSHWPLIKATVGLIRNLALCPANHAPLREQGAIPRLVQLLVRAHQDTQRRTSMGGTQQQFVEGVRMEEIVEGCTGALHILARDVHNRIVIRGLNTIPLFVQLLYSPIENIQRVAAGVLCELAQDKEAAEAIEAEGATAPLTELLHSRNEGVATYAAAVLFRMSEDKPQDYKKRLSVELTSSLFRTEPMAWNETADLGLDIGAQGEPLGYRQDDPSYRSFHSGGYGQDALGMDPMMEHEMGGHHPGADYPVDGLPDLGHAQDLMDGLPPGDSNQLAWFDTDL", "experiment": "AlphaScreen competitive inhibition assay of β-catenin/BCL9 PPI", "format": "binding", "method": "AlphaScreen Assays of β-Catenin and BCL9 Interaction. Experiments were performed in white opaque 384-well plates from PerkinElmer (Waltham, MA), and the samples were read on a Biotek Synergy 2 plate reader (Winooski, VT) with excitation at 680 nm and emission at 570 nm. The standard AlphaScreen protocol was used with a sensitivity setting of 200. All dilutions were made in 1x assay buffer containing 25 mM Hepes (pH 7.4), 100 mM NaCl, 0.01% Triton X-100 and 0.1% BSA to minimize nonspecific interactions.\nFor the β-catenin/BCL9 assay, 5 nM biotinylated BCL9, and 50 nM His6-tagged 8-catenin were incubated in assay buffer for 30 min. Different concentrations of the tested inhibitor were added and incubated in 20 μL assay buffer for another 1 h. All of the assay plates were covered and gently mixed on an orbital shaker. Donor and acceptor beads were then added to the plates to a final concentration of 10 μg/mL in 25 μL assay buffer. The mixture was incubated for 1 h before detection. The IC50 value was determined by nonlinear least-square analysis of GraphPad Prism 8.0. […] All of the experiments were performed in triplicate and carried out in the presence of 1% DMSO for small-molecule inhibitors. Each compound was assayed at least by three independent experiments. The results were expressed as mean±standard deviation."}}, "note": "Read-outs that look alike come from different tables or passages of the source.", "data": [{"smiles": "CC(C)(Oc1cccc(N2CCC[C@H](C(=O)N(Cc3ccc(-c4cccs4)cc3)C3CC3)C2)c1)C(=O)NS(=O)(=O)c1ccc(C#N)cc1", "note": "[Compound 30, (S)-((4-Cyanophenyl)sulfonyl) (2-(3-(3-(cyclopropyl(4-(thiophen-2-yl)benzyl)carbamoyl)piperidin-1-yl)phenoxy)-2-methylpropanoyl)amide]", "values": [{"measurement": "disruption of β-catenin/BCL9 PPI in cells (co-IP)", "setting": "β-catenin/BCL9 PPI [1]", "result": "disrupted the β-catenin/BCL9 PPI in a dose-dependent manner"}, {"measurement": "effect on FOPFlash luciferase reporter activity", "setting": "[2]", "result": "did not show any inhibitory effect"}, {"measurement": "effect on β-catenin/E-cadherin PPI in cells (co-IP)", "setting": "β-catenin/E-cadherin PPI", "result": "did not affect the β-catenin/E-cadherin PPI"}, {"measurement": "Ki", "setting": "β-catenin/BCL9 PPI [3]; AlphaScreen competitive inhibition assay, read-out: Ki for disruption of the β-catenin/BCL9 PPI", "result": 3.6, "unit": "µM"}, {"measurement": "AlphaScreen inhibitory activity in words", "setting": "β-catenin/BCL9 PPI [3]; SAR comparison", "result": "slightly superior to R-isomer"}, {"measurement": "IC50", "setting": "β-catenin/BCL9 PPI [3]; Table 2, AlphaScreen, inhibitors 27-30 (R- and S-isomers), preliminary", "result": "≤ 5", "unit": "µM"}, {"measurement": "Ki", "setting": "β-catenin/BCL9 PPI [3]; Table 2, AlphaScreen, inhibitors 27-30 (R- and S-isomers), preliminary, read-out: Ki", "result": "≤ 5", "unit": "µM"}]}]}
